Assay results taken from patent US20260317320A1, “C5AR1 ANTAGONISTS AND USES THEREOF” (Vanqua Bio, Inc., priority 2022, published 2026).
Where two headings read alike, the source gives them in different places.

Experiments:
[1] = biological target: T1, complement C5a receptor 1 (C5aR1) (Homo sapiens, UniProt P21730); test: β-arrestin recruitment via C5aR1 activation in live CHO-K1 cells (PathHunter), antagonist mode; type: cell-based; details: antagonist mode; recombinant hC5a (EC90) as competing natural agonist; live CHO-K1 cells; read-out: [Antagonist] B-arrestin2 recruitment: Average IC50
T1 construct: β-galactosidase fragment (PathHunter enzyme complementation); host or cells: CHO-K1 (PathHunter CHO-K1 C5aR1 β-arrestin cell line)
T1 sequence (P21730 1-350): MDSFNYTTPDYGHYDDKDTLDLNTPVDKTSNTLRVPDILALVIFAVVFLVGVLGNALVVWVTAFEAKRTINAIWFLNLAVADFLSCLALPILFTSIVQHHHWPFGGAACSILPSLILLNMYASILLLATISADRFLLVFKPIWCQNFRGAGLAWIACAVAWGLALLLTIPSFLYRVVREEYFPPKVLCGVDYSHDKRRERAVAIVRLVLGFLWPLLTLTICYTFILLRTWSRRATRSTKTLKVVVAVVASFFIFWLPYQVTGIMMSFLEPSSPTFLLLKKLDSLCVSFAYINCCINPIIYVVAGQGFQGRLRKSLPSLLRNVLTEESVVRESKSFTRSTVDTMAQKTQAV
Procedure, shortened: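 β-arrestin recruitment to C5aR1 in CHO-K1 cells is detected by enzyme-fragment complementation. Antagonism is measured against recombinant hC5a at its EC90; agonism is measured with compound alone. Potencies are grouped into IC50 categories.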

[2] = biological target: T1, complement C5a receptor 1 (C5aR1); test: β-arrestin recruitment via C5aR1 activation in live CHO-K1 cells (PathHunter), agonist mode; type: cell-based
Experimental: Exemplary compounds were evaluated for classical GPCR β-arrestin recruitment via complement C5a receptor 1 (C5aR1) activation in live CHO-K1 cells. This cell line expresses two fragments of the […] protein coupled to β-arrestin and C5aR1. Complementation of the two fragments allows for the assessment of both C5aR1 agonism and antagonism. Recombinant hC5a (EC90) was used as the competing natural agonist against disclosed compounds (more information on the expanded protocol and cell line can be found on the manufacturer's website: PathHunter® CHO-K1 C5aR1 β-arrestin cell line, DiscoverX, Catalog No. 93-0557C2). […] IC50 ranges: A: IC50≤500 nM; B: 500 nM<IC50≤5 uM; C: 5 uM<IC50≤100 uM; D: IC50>100 uM.

| IC50 [1] | [Agonist] B-arrestin2 recruitment: Average EC50 (nM) ([2]; at 10 μM) | [Agonist] B-arrestin2 recruitment: Average EC50 (nM) [2] | SMILES |
| --- | --- | --- | --- |
| < 500 nM | Non-Active at 10 μM | – | Cc1cnc2cc([C@H]3CC[C@@H](c4c(C)ccnc4F)CC3)c(=O)n(Cc3ncccc3C(F)(F)F)c2n1 [147A, 7-((1s,4s)-4-(2-Fluoro-4-methylpyridin-3-yl)cyclohexyl)-3-methyl-5-((3-(trifluoromethyl)pyridin-2-yl)methyl)pyrido[2,3-b]pyrazin-6(5H)-one] |
| < 500 nM | – | Non-Active | Cc1cnc2cc([C@H]3CC[C@H](c4c(C)ccnc4F)CC3)c(=O)n(Cc3ncccc3C(F)(F)F)c2n1 [147B, 7-((1r,4r)-4-(2-Fluoro-4-methylpyridin-3-yl)cyclohexyl)-3-methyl-5-((3-(trifluoromethyl)pyridin-2-yl)methyl)pyrido[2,3-b]pyrazin-6(5H)-one] |
| 500 to 5000 nM | – | Non-Active | Cc1cnc2cc([C@H]3CC[C@@H](c4c(C)cccc4F)CC3)c(=O)n(Cc3nccnc3C(F)F)c2n1 [148A, 5-((3-(Difluoromethyl)pyrazin-2-yl)methyl)-7-((1s,4s)-4-(2-fluoro-6-methylphenyl)cyclohexyl)-3-methylpyrido[2,3-b]pyrazin-6(5H)-one] |
| < 500 nM | – | Non-Active | Cc1cnc2cc([C@H]3CC[C@H](c4c(C)cccc4F)CC3)c(=O)n(Cc3nccnc3C(F)F)c2n1 [148B, 5-((3-(Difluoromethyl)pyrazin-2-yl)methyl)-7-((1r,4r)-4-(2-fluoro-6-methylphenyl)cyclohexyl)-3-methylpyrido[2,3-b]pyrazin-6(5H)-one] |
| 5000 to 100000 nM | – | Non-Active | Cc1cnc2cc(C3CCN(c4c(C)cccc4F)CC3)c(=O)n([C@@H]3CCC(F)(F)c4nccnc43)c2n1 [149A, (R)-5-(8,8-Difluoro-5,6,7,8-tetrahydroquinoxalin-5-yl)-7-(1-(2-fluoro-6-methylphenyl)piperidin-4-yl)-3-methylpyrido[2,3-b]pyrazin-6(5H)-one] |
| < 500 nM | – | Non-Active | Cc1cnc2cc(C3CCN(c4c(C)cccc4F)CC3)c(=O)n([C@H]3CCC(F)(F)c4nccnc43)c2n1 [149B, (S)-5-(8,8-Difluoro-5,6,7,8-tetrahydroquinoxalin-5-yl)-7-(1-(2-fluoro-6-methylphenyl)piperidin-4-yl)-3-methylpyrido[2,3-b]pyrazin-6(5H)-one] |
| < 500 nM | Non-Active at 10 μM | – | Cc1cnc2cc([C@H]3CC[C@@H](c4cnccc4C(F)(F)F)CC3)c(=O)n(Cc3ncccc3C(F)(F)F)c2n1 [150A, 3-Methyl-5-((3-(trifluoromethyl)pyridin-2-yl)methyl)-7-((1s,4s)-4-(4-(trifluoromethyl)pyridin-3-yl)cyclohexyl)pyrido[2,3-b]pyrazin-6(5H)-one] |
| < 500 nM | – | Non-Active | Cc1cnc2cc([C@H]3CC[C@H](c4cnccc4C(F)(F)F)CC3)c(=O)n(Cc3ncccc3C(F)(F)F)c2n1 [150B, 3-Methyl-5-((3-(trifluoromethyl)pyridin-2-yl)methyl)-7-((1r,4r)-4-(4-(trifluoromethyl)pyridin-3-yl)cyclohexyl)pyrido[2,3-b]pyrazin-6(5H)-one] |
| 5000 to 100000 nM | Non-Active at 10 μM | – | Cc1cccc(F)c1N1CCC(c2cc3nccnc3n([C@H]3CCc4nccnc43)c2=O)CC1 [160A, (S)-5-(6,7-Dihydro-5H-cyclopenta[b]pyrazin-5-yl)-7-(1-(2-fluoro-6-methylphenyl)piperidin-4-yl)pyrido[2,3-b]pyrazin-6(5H)-one] |
| 5000 to 100000 nM | Non-Active at 10 μM | – | Cc1cccc(F)c1N1CCC(c2cc3nccnc3n([C@@H]3CCc4nccnc43)c2=O)CC1 [160B, (R)-5-(6,7-Dihydro-5H-cyclopenta[b]pyrazin-5-yl)-7-(1-(2-fluoro-6-methylphenyl)piperidin-4-yl)pyrido[2,3-b]pyrazin-6(5H)-one] |
